Reference: ChEMBL document CHEMBL1149193, “Selective optimization of side activities: another way for drug discovery” (J Med Chem, 2004)
pKi: −log10 of the molar value.

Key:
[1] = molecular target: T1, Alpha-1A adrenergic receptor (Homo sapiens, UniProt P35348)
T1 sequence (P35348 whole entry): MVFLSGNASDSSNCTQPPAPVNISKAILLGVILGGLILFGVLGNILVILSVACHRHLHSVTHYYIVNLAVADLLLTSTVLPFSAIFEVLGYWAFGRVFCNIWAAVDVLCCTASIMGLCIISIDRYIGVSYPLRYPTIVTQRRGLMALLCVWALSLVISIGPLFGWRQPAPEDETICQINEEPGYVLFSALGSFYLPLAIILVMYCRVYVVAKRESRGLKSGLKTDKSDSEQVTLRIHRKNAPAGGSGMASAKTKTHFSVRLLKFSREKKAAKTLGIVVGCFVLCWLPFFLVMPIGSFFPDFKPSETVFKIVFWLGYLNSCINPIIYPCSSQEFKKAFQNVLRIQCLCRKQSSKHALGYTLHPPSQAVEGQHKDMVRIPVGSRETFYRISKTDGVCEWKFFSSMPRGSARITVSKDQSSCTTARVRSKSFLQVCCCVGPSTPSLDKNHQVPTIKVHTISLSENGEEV
Description: Binding affinity towards recombinant human alpha-1A adrenergic receptor

D(4) dopamine receptor = molecular target: T2, D(4) dopamine receptor (Homo sapiens, UniProt P21917)
T2 sequence (P21917 whole entry): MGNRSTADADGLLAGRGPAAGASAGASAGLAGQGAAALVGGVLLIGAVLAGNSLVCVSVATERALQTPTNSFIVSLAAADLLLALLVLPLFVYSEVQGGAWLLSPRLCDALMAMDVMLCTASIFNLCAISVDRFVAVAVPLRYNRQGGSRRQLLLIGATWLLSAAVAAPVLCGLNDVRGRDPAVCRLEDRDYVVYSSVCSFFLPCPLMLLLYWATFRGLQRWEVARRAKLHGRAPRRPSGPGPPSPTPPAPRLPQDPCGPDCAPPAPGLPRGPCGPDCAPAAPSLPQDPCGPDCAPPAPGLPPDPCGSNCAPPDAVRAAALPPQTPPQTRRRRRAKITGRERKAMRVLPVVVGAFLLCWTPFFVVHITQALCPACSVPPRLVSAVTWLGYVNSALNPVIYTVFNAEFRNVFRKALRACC
Description: Binding affinity towards human Dopamine receptor D4

Mus musculus = species: Mus musculus; assay: animal or person; format: functional; conditions: sc
Description: In vivo inhibitory activity for apomorphine induced climbing in mice, sc

D(3) dopamine receptor = D(3) dopamine receptor (Homo sapiens, UniProt P35462)
Sequence of D(3) dopamine receptor (P35462 whole entry): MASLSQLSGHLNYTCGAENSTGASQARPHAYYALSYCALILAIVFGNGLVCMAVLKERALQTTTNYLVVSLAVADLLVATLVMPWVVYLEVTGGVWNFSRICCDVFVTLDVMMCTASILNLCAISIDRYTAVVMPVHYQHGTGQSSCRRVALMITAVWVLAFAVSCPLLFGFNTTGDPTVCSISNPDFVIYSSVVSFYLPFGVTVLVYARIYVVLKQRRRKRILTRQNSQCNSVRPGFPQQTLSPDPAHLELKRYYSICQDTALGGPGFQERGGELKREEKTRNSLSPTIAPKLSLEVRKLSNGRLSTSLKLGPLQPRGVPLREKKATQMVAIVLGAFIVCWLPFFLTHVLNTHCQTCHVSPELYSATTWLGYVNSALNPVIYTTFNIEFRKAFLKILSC
Description: Binding affinity against Dopamine receptor D3

Row | SMILES | pKi [1] | pKi (D(4) dopamine receptor) | ED50 (Mus musculus) | pKi (D(3) dopamine receptor)
1 | COCC1=C(C(=O)OC)[C@H](c2ccc(F)c(F)c2)C(C(=O)NCCCN2CCC(c3ccccn3)CC2)C(=O)N1 (some centres undefined) | 9.44 |  |  | 
2 | COc1cc(NC(=O)C2CC2)c(Cl)cc1C(=O)NC1CCN(Cc2ccccc2)C1 (centres undefined) |  | 8.68 | 0.32 mg/kg | 7.68
